From article PMC9202104 (BMC Biology, 2022)

Assays:
[1] = system: ZIKV human strain PAN2016; experiment: ZIKV challenge in adult Ifnar1−/− mice, tissue viral titers and immunofluorescence; assay type: in vivo; details: 5 dpi
Experimental: Briefly, 7–8-week-old male mice were used, and two separate experiments were performed. […] These mice were i.p. infected with ZIKV (human strain R103451, 200 PFU/mouse) and observed daily for weight changes and survival until 21 dpi. […] Five days later, these mice were sacrificed, and their tissues, including the heart, testis, eye, kidney, and brain, were collected for detection of viral titers by plaque assay, or apoptosis by immunofluorescence staining. Mice losing 20% of initial weight with severe symptoms, including hind limb weakness and paralysis, or 25% of initial weight, were humanely euthanized with an overdose isoflurane in a Bell Jar, followed by cervical dislocation.
Plaque assay was used to detect viral titers in ZIKV-infected tissues. Briefly, tissues were homogenized with cold culture medium (DMEM + 2% FBS) and then centrifuged (2000 g at 4°C for 10 min). Supernatants were serially diluted to infect Vero E6 cells in 24-well plates. ZIKV titers in tissues were measured from ~40 mg of samples; thus, the detection limit was about 25 PFU/g of tissues.
(§1) Immunofluorescence staining was carried out to detect ZIKV and caspase-3 signals in ZIKV-infected mouse tissues. Briefly, tissues were fixed in 4% formaldehyde, embedded in paraffin, and sectioned. The tissue sections were deparaffinized, fixed, and permed using the FIX and PERM Cell Permeabilization Kit (Thermo Fisher Scientific, Waltham, MA, USA). After blocking with 5% BSA, the tissue slides were incubated at 37°C 2 h with ZIKV EDIII-specific human mAb (ZV-67, 1:100, Absolute Antibody, Boston, MA, USA), or rabbit anti-active caspase-3 antibody (1:100, Abcam). The slides were washed with PBS and incubated for 30 min with anti-human FITC antibody (1:100, for ZIKV), or anti-rabbit Alexa Fluor 647 antibody (1:100, for caspase-3). The slides were then counterstained for nuclei, using DAPI (300 nM, Thermo Fisher Scientific, Waltham, MA, USA) for 5 min, and mounted in VectaMount Permanent Mounting Medium (Vector Laboratories, CA, USA). The slides were analyzed using a confocal microscope (Zeiss LSM 880) and ZEN software, and fluorescent signals were quantified by ImageJ software.

ZIKV NS2B-NS3 protein = molecular target: T1, ZIKV NS2B-NS3 protein (Zika virus, UniProt Q32ZE1); experiment: ELISA binding to ZIKV NS2B-NS3 protein
T1 construct: fused with the genes encoding NS3 protein (residues 1-185) through a linker (Gly4-Thr-Gly4); His6 (C); made in house; host or cells: E. coli
T1 sequence (Q32ZE1 1499-1683, added parts left off, change not shown): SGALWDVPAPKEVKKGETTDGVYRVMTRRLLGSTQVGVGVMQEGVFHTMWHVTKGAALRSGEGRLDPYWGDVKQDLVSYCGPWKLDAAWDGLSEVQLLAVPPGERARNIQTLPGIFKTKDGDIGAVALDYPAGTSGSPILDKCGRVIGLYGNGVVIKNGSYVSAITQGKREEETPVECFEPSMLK
Experimental: (§2) Briefly, ELISA plates were coated with each protein (1 μg/ml) at 4°C overnight and were then incubated with blocking buffer containing 2% fat-free milk in PBST (0.05% Tween-20) at 37°C for 2 h. The above compounds, or DMSO control, at serial dilutions were added to the plates and incubated at 37°C for 2 h. After three washes using PBST, the plates were incubated at 37°C for 2 h with ZIKV EDIII-specific human mAb ZKA64-LALA (0.5 μg/ml) (for binding to ZIKV full-length E or EDIII protein), or ZIKV NS2B-NS3-specific mouse sera (for binding to NS2B-NS3 protein). After further washes, the plates were incubated with horseradish peroxidase (HRP)-conjugated anti-human IgG-Fab (1:3,000, Abcam, Cambridge, MS, USA) or anti-mouse IgG (1:3,000, Sigma) antibody at 37°C for 1 h. The plates were incubated with substrate TMB (3,3′,5,5′-tetramethylbenzidine) for 1 min, and the reaction was stopped by addition of 1 N H2SO4. Absorbance at 450 nm (A450 values) was measured by an ELISA microplate reader. Percent binding (% binding) to the E, EDIII, or NS2B-NS3 protein was calculated in the presence or absence of serially diluted compounds using the formula ((1-(E/EDIII/NS2B-NS3-compound)/(E/EDIII/NS2B-NS3))×100), based on which EC50 was calculated using the CalcuSyn program.

[2] = Safety profile in pregnant Ifnar1−/− mice and pups; assay type: in vivo
Experimental: Briefly, groups of 5 pregnant mice (8–12-week-old, E12-14) were i.p. injected with ST087010 (20 or 40 mg/kg of body weight, 200 μl/mouse), or DMSO (negative control), daily for 4 continuous days.

[3] = system: ZIKV human strain R116265; experiment: ZIKV vertical transmission in pregnant Ifnar1−/− mice; assay type: in vivo; details: 5 dpi
Experimental: Briefly, groups of 5 pregnant mice (10–12-week-old, E12-14) were i.p. injected with ST087010 (20 mg/kg of body weight, 200 μl/mouse), or DMSO (negative control), 12 h before and 6, 24, and 48 h after i.p. infection with ZIKV (human strain R116265, 10^3 PFU). Five days post-infection, mice were sacrificed; viral titers were assessed using plaque assay in the sera, placenta, fetal brain, and amniotic fluid, and uteri and fetuses were assessed for morphological and size changes. The placenta was also assessed for apoptosis and viral replication by immunofluorescence staining, as described below.
as §1

in vitro = assay type: cell-based; details: rhesus monkey
Experimental: Briefly, compounds at 2-fold serial dilutions were added to the respective cells (2.0×10^4/well) pre-seeded in 96-well plates. The cells were cultured at 37°C in the presence of 5% CO2 for 3 days, […] incubated with CCK8 solution, followed by measurement of absorbance at 450 nm (A450 value), using a microplate reader (Infinite F200PRO, Tecan, Morrisville, NC, USA). CC50 of compounds was calculated using the CalcuSyn program.

[4] = system: ZIKV human strain PLCal_ZV; experiment: Plaque assay, inhibition of ZIKV infection (strain PLCal_ZV); assay type: cell-based; details: Zika virus, Vero C1008; plaque assay, Vero E6 cells, human strain; read-out: IC50 PLCal_ZV
Experimental: (§3) After removal of the unbound compounds by centrifugation (after addition of 3% PEG-6000), ZIKV was incubated with Vero E6 cells in 24-well plates at 37°C for 1 h. The cells were then washed with PBS, overlaid with DMEM containing 1% carboxymethyl cellulose and 2% FBS, and cultured at 37°C for 4–5 days, followed by being stained with 0.5% crystal violet. […] Plaques in each well were calculated, and IC50 of compounds for each compound was calculated using the CalcuSyn computer program.

[5] = system: ZIKV human strain R103451; experiment: Plaque assay, inhibition of ZIKV infection (strain R103451); assay type: cell-based; details: Zika virus, Vero C1008; plaque assay, Vero E6 cells, human strain; read-out: IC50 R103451
Experimental: as §3

ZIKV EDIII protein = molecular target: T2, ZIKV EDIII protein (Zika virus, UniProt A0A024B7W1); experiment: ELISA binding to ZIKV EDIII protein
T2 construct: EDIII (residues 298-409 in E protein containing a C-terminal human Fc tag); human Fc (C)
T2 sequence (A0A024B7W1 588-699): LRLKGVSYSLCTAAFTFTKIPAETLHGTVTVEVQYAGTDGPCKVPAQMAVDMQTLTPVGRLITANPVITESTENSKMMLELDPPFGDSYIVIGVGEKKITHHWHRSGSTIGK
Experimental: as §2

[6] = immunofluorescence, compared to DMSO

In the case of `Cc1cc2c(C(C)C)c(O)c(O)c(/C=N/n3c(=O)[nH][nH]c3=O)c2c(O)c1-c1c(C)cc2c(C(C)C)c(O)c(O)c(/C=N/n3c(=O)[nH][nH]c3=O)c2c1O` [ST087010], the “Viral titers in the heart, testis, eye, kidney, and brain” value ([1]; 20 mg/kg i.p., ZIKV PAN2016 200 PFU, compared to gossypol or DMSO-treated mice) is reported as “significantly reduced”, the “ZIKV+ signals in eye and testis tissues” value ([1]; immunofluorescence) is reported as “undetectable” and the “Caspase-3 staining in eye and testis tissues” value [1, 6] is reported as “undetectable, or diminished”. The EC50 (ZIKV NS2B-NS3 protein) was 21.9 µM, the “Histopathology of liver, spleen, kidney, and brain of mothers and pups” value ([2]; 20 or 40 mg/kg, compared to DMSO) was “did not present pathological changes” and the “Inflammation or cell infiltration in tissues” value ([2]; low and high doses (20 and 40 mg/kg)) was “no inflammation or cell infiltration”. For the same compound, the “Serum ALT and creatinine levels vs DMSO” value ([2]; pregnant mice, 20 mg/kg, 1 day after injection) was “no significant difference”, the “Serum ALT and creatinine levels” value ([2]; pregnant mice, 20 or 40 mg/kg, before injection and 4 h, 3 or 5 days after last injection) was “no significant differences” and the “Staining of ZIKV+ or caspase-3 signals in placental tissues” value [3, 6] was “undetectable, or diminished”. For the same compound, the “Viral titers in sera, placenta, fetal brain, and amniotic fluid” value ([3]; pregnant mice, 20 mg/kg i.p., ZIKV R116265 10^3 PFU, compared to DMSO) was “significantly reduced”, the Condition of fetuses ([3]; pregnant mice, 20 mg/kg i.p., ZIKV R116265) was “all in good condition” and the CC50 at 3 days (in vitro) was 47.2 ± 1.35 µM. For the same compound, the IC50 [4] was 2.2 µM, the IC50 [5] was 3.6 µM and the EC50 (ZIKV EDIII protein) was 6.13 µM.
